Reference: US9750742B2, “Small molecular inhibitors of RAD51 recombinase and methods thereof” (Drexel University, priority 2011, dated 2017)

How the values were obtained:
MEF cells = assay: Clonogenic survival assay, MEF; format: cell-based, mouse; conditions: AZD2281 1 μM versus MMS only
Experimental: Briefly, MEF cells were trypsinized and the appropriate number of cells was replated on 10 cm tissue culture dishes. […] Cells were fixed and stained using staining solution (0.05% crystal violet, 50% methanol in PBS); colonies were counted using an AlphaImager 3400 (Alpha Innotech Inc.). The percent of survival was determined as described (Hall & Giccia, 2005, “Radiobiology for the Radiologist”, 6th Ed., Philadelphia, Pa.: Lippincott Williams & Wilkins, pp. 30-45). The percent of survival obtained from untreated cells was normalized to 100% survival.

RAD51 = molecular target: T1, RAD51 (Homo sapiens, UniProt Q06609); assay: D-loop assay for RAD51; format: biochemical; conditions: for inhibitory effect on D-loop formation by RAD51, in words: B02 derivatives 50 μM; for IC50: RAD51 1 μM, ssDNA 3 μM, dsDNA 50 μM, compound added after filament formation
T1 construct: made in house
T1 sequence (Q06609 1-339): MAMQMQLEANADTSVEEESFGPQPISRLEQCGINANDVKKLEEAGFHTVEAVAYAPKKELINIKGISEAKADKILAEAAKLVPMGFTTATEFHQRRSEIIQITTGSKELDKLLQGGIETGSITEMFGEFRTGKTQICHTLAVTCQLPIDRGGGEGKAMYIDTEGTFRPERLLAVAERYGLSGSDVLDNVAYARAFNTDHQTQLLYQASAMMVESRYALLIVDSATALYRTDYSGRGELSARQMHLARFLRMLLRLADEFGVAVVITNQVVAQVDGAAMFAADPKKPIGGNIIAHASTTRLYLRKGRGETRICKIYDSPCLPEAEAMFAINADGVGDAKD
Experimental: When indicated, chemical compounds in question were added in specified concentrations and incubation was continued for 30 min at 37° C. D-loop formation was initiated by addition of supercoiled pUC19 dsDNA (50 μM, nt) and continued for 15 min. Reactions were stopped by addition of SDS to 1% (w/v) and proteinase K to 880 μg ml^−1 followed by incubation for 15 min at 37° C. […] The yield of joint molecules was expressed as a percentage of the total plasmid DNA.
The reaction was deproteinized and analyzed as described above.
(§1) IC50 values were calculated using GraphPad Prism V5.0 software and the sigmoidal dose-response function. The data were obtained from three independent repeats of experiments.

RecA = molecular target: T2, RecA (Escherichia coli, UniProt P0A7G6); assay: biochemical; parameters: species or system E. coli; conditions: for IC50: IC50 (RecA), RecA 1 μM, ssDNA 3 μM, dsDNA 50 μM; for inhibition of RecA DNA strand exchange, in words: up to 100 μM
T2 construct: purchased USB Inc. (Cleveland, Ohio)
T2 sequence (P0A7G6 whole entry): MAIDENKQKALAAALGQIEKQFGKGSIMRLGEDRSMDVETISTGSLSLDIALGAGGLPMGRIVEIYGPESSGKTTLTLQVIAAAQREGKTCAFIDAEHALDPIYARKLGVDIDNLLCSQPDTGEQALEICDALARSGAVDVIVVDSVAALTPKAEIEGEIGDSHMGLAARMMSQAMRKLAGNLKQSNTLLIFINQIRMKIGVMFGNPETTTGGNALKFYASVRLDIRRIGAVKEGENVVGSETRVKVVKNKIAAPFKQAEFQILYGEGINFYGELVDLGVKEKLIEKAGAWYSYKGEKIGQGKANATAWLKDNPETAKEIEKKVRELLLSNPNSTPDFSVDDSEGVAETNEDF
Experimental: (Mazin et al., 2000, EMBO J. 19:1148-56). When indicated, chemical compounds in specified concentrations were added and incubation was continued for 30 min at 37° C. D-loop formation was initiated by addition of supercoiled pUC19 dsDNA (50 μM, nt) and carried out for 3 min at 37° C. The DNA products were deproteinized and analyzed as described above for the Rad51-promoted reaction.
as §1

SMILES | sensitivity to MMS (MEF cells) | inhibitory effect on D-loop formation by RAD51, in words (RAD51) | IC50 (RAD51) [µM] | IC50 (RecA) [µM] | inhibition of RecA DNA strand exchange, in words (RecA)
O=C(c1cc(Cc2n[nH]c(=O)c3ccccc23)ccc1F)N1CCN(C(=O)C2CC2)CC1 [AZD2281, 4-[(3-[(4-cyclopropylcarbonyl)piperazin-4-yl]carbonyl)-4-fluorophenyl]methyl(2H)phthalazin-1-one, reference compound] | more sensitive |  |  |  | 
CCn1c(/C=C/c2cccnc2)nc2ccccc2c1=O [Compound C3a, (E)-3-ethyl-2-(2-(pyridin-3-yl)vinyl)quinazolin-4(3H)-one] |  | retain the inhibitory effect | 15.3 | > 100 | do not inhibit
Cc1cccc(-n2c(/C=C/c3cccnc3)nc3ccccc3c2=O)c1 [Compound C3b, (E)-2-(2-(pyridin-3-yl)vinyl)-3-(m-tolyl)quinazolin-4(3H)-one] |  | retain the inhibitory effect | 27.3 | > 100 | do not inhibit
Cc1ccc(-n2c(C=Cc3cccnc3)nc3ccccc3c2=O)cc1 [Compound C3c] |  | eliminates the inhibition |  |  | 
O=c1c2ccccc2nc(C=Cc2cccnc2)n1-c1ccccc1 [Compound C3d] |  | eliminates the inhibition |  |  | 
Cn1c(C=Cc2cccnc2)nc2ccccc2c1=O [Compound C3e] |  | eliminates the inhibition |  |  | 
